Laboratory results published in patent US10391137B2, “Platelet-derived growth factor-BB production promotor, and mesenchymal stem cell production accelerator, stem cell stabilizer and dermal regenerator comprising the same” (Shiseido Company, Ltd., priority 2011, dated 2019).

Tested on: PDGF-B gene expression in human vascular endothelial cells HUVEC
Assay: Evaluation of PDGF-BB production-promoting effect in vascular endothelial cells (PDGF-B mRNA, quantitative RT-PCR)
Type: cell-based
Conditions: 10 ppm in medium, cultured 2 days, PDGF-BB mRNA vs. solvent control, G3PDH internal standard
Procedure: Human vascular endothelial cells HUVEC were subcultured with EGM-2 medium (Sanko Junyaku Co., Ltd.), and cells of the 4th subculture were suspended in VEGF-A-free Humedia-EG2 medium (Kurabo Industries, Ltd.) and seeded in a collagen-coated 24-well multiplate (Asahi Glass Co., Ltd.) at a 20,000 cell ratio, and culturing was conducted in the presence of 5% CO2 for 3-5 days until the cells reached confluence at 37° C. After exchange with Humedia-EG2 medium (Kurabo Industries, Ltd.) containing each sample added to the specified concentration or an added solvent dissolving each evaluation sample, culturing was continued for 2 days. The mRNA was extracted and purified from the cultured cells using an RNA extraction reagent MagNA Pure LC mRNA HS kit (Roche) and an automatic nucleic acid extraction apparatus MagNA Pure LC 1.0 Instrument (Roche), according to the manufacturer's protocol. For each sample, an equal volume of mRNA was used as template for one-step quantitative real time (RT)-PCR of the PDGF-B gene using primer pairs of SEQ ID NO: 1 and 2 listed below, the reaction reagent QuantiFast SYBR Green RT-PCR Kit (Qiagen) and a LightCycler reactor (Roche). The composition conditions were according to the protocol by Qiagen. […]

In the case of O[C@H]1[C@H](O)[C@@H](O)[C@H](O)[C@@H](O)[C@H]1O [Inositol, myo-inositol], the “PDGF-BB expression (vs. control)” value is reported as 1.37.
For O=P(O)(O)O[C@H]1[C@H](OP(=O)(O)O)[C@@H](OP(=O)(O)O)[C@H](OP(=O)(O)O)[C@@H](OP(=O)(O)O)[C@H]1OP(=O)(O)O [Phytic acid, phytic acid], the “PDGF-BB expression (vs. control)” value was 1.20.
